Reference: ChEMBL document CHEMBL1141980, “Novel use of chemical shift in NMR as molecular descriptor: a first report on modeling carbonic anhydrase inhibitory activity and related parameters” (Bioorg Med Chem Lett, 2005)

Test: Diuretic activity was determined
Format: ADME, tissue-based, Urine
Design: reference not given here

SMILES | pC
CC(=O)c1ccc(S(N)(=O)=O)cc1 | 0.398
Cc1cccc(S(N)(=O)=O)c1 | 0.176
COc1ccc(S(N)(=O)=O)cc1 | 0.188
N#Cc1ccc(S(N)(=O)=O)cc1 | 1
NS(=O)(=O)c1ccc(Br)cc1 | 0.267
NS(=O)(=O)c1ccc([N+](=O)[O-])c(C(F)(F)F)c1 | 0.58
NS(=O)(=O)c1ccc([N+](=O)[O-])cc1 | 0.824
NS(=O)(=O)c1ccccc1[N+](=O)[O-] | 0.301
NS(=O)(=O)c1cccc(Cl)c1 | 0.292
NS(=O)(=O)c1ccccc1 [BENZENESULFONAMIDE] | 0.13
NS(=O)(=O)c1ccc(Cl)cc1 [P-CHLOROBENZENESULFONAMIDE] | 0.286
Nc1ccc(S(N)(=O)=O)cc1 [SULFANILAMIDE] | -0.301

Second part, the compound after the results:

pC | SMILES
-0.036 | CNc1ccc(S(N)(=O)=O)cc1
0.301 | Cc1ccccc1S(N)(=O)=O
0.243 | NS(=O)(=O)c1ccc(Cl)c(Cl)c1
0.678 | NS(=O)(=O)c1cccc([N+](=O)[O-])c1
0.301 | NS(=O)(=O)c1ccccc1Cl
0.322 | NS(=O)(=O)c1ccc(Cl)c([N+](=O)[O-])c1
0.182 | Cc1ccc(S(N)(=O)=O)cc1 [P-TOLUENESULFONAMIDE]
